Source: PubChem BioAssay (NCI)
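Test compounds were applied to cells in 96-well plates for 48 hours at 5 doses. GI50 = concentration required for 50% inhibition of growth. TGI: total growth inhibition.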

Columns and labels:
Test in all cases: NCI-60 cell line screen, 48 h
DU-145 prostate = system: DU-145 prostate
MCF7 breast = system: MCF7 breast
MDA-MB-435 = system: MDA-MB-435
NCI/ADR-RES ovarian = system: NCI/ADR-RES ovarian
PC-3 prostate = system: PC-3 prostate
T-47D breast = system: T-47D breast
DMS 273 small cell lung = system: DMS 273 small cell lung
DMS 114 small cell lung = system: DMS 114 small cell lung
LXFL 529 NSCLC = system: LXFL 529 NSCLC

| SMILES | TGI (DU-145 prostate) | TGI (MCF7 breast) | TGI (MDA-MB-435) | TGI (NCI/ADR-RES ovarian) | TGI (PC-3 prostate) | TGI (T-47D breast) | GI50 (DU-145 prostate) | GI50 (MCF7 breast) | GI50 (NCI/ADR-RES ovarian) | GI50 (PC-3 prostate) | GI50 (T-47D breast) | GI50 (MDA-MB-435) | TGI (DMS 273 small cell lung) | TGI (DMS 114 small cell lung) | TGI (LXFL 529 NSCLC) |
| --- | --- | --- | --- | --- | --- | --- | --- | --- | --- | --- | --- | --- | --- | --- | --- |
| CCCCCCNC(=O)C1=C(C)NC(C)=C(C(=O)NCCCCCC)C1 | > 100 µM | > 100 µM | > 100 µM | > 100 µM | > 100 µM | > 100 µM | – | – | – | – | – | – | – | – | – |
| COc1ccc(/C=C/c2cc(OC)c(OC)c(OC)c2)cc1NC(=O)/C=C/c1ccc(F)cc1 | > 40.5 µM | > 100 µM | – | 6.38 µM | > 100 µM | > 100 µM | 4.05 µM | 3.34 µM | 1.19 µM | 1.98 µM | 5.51 µM | – | – | – | – |
| Cc1nn(C(=O)c2ccccc2O)c2c1C(c1ccccc1)SC(N)=N2 (configuration not stated) | > 10 µM | > 10 µM | > 10 µM | > 10 µM | > 10 µM | > 10 µM | – | – | – | – | – | – | – | – | – |
| O=C(O)C1CCc2ccc3ccccc3c2C1c1cccc2ccccc12 (configuration not stated) | 68.8 µM | 89.4 µM | 73.7 µM | 57.8 µM | 41.2 µM | > 100 µM | – | – | – | – | – | – | – | – | – |
| COc1cc(/C=C/c2cc(C(F)(F)F)[nH]c(=O)n2)ccc1OCc1ccccc1F | 23.3 µM | 17.3 µM | 17 µM | > 100 µM | 29 µM | 63.1 µM | 9.8 µM | 4.13 µM | 14.7 µM | 9.06 µM | 9.98 µM | 3.77 µM | – | – | – |
| CC1=CSC2=NC(c3ccc(Cl)c(Cl)c3)=CC(c3ccc(Cl)cc3)N12 (configuration not stated) | > 100 µM | > 100 µM | > 100 µM | > 100 µM | > 100 µM | > 100 µM | > 100 µM | > 100 µM | > 100 µM | > 100 µM | > 100 µM | > 100 µM | – | – | – |
| c1cnc2c(c1)-n1cccc1C1(CCSCC1)NN2 | – | – | – | – | – | – | – | – | – | – | – | – | > 100 µM | – | – |
| O=C(Oc1ccc(O)c2c(=O)n3c(cc12)[nH]c1ccccc13)c1ccccc1 | > 100 µM | > 100 µM | 89.9 µM | 55 µM | 56 µM | 47.2 µM | 30.5 µM | 74.1 µM | 18.7 µM | 18.2 µM | 9.32 µM | 28.5 µM | – | – | – |
| O=C(Nc1ccc(Cl)cc1)Nc1ccc(Cl)c(Cl)c1 | > 100 µM | 8.9 µM | > 100 µM | > 100 µM | > 100 µM | 30.6 µM | 4.08 µM | 2.27 µM | 3.6 µM | 2.97 µM | 3.05 µM | 3.4 µM | – | – | – |
| S=C(Nc1ccc(-c2nc3ccccc3[nH]2)cc1)NC1CCCCC1 | – | > 100 µM | 43.3 µM | 82.2 µM | – | – | 37.9 µM | 19.7 µM | 28.6 µM | 36.6 µM | 27 µM | 16.4 µM | – | – | – |
| CCCCNc1nc(NC(C)(C)C)nc(NC(C)(C)C)n1 | > 100 µM | > 100 µM | > 100 µM | > 100 µM | > 100 µM | > 100 µM | 8.82 µM | 9.94 µM | 3.31 µM | 4.26 µM | 15.2 µM | 31.8 µM | – | – | – |
| CCOC(=O)[C@@H](C)C[C@H](Cc1ccccc1)NC(=O)c1csc([C@@H](C[C@H](C(C)C)N(C)C(=O)[C@@H](NC(=O)[C@H]2C[C@H](O[Si](C)(C)C(C)(C)C)CCN2C)C(C)C)OC(C)=O)n1 | > 3.91 µM | > 8.33 µM | 0.165 µM | 5.03 µM | > 8.33 µM | > 8.33 µM | 0.287 µM | 0.132 µM | 1.29 µM | 0.22 µM | 0.297 µM | 0.0389 µM | – | – | – |
| COc1cc2c(cc1C)NC(=O)/C2=C\c1cc(OC)c(OC)c(OC)c1 | – | > 100 µM | > 100 µM | > 100 µM | > 100 µM | > 100 µM | – | 42.2 µM | > 100 µM | > 100 µM | > 100 µM | > 100 µM | – | – | – |
| O=[N+]([O-])c1c(/C=N/Nc2ccccc2)oc(-c2ccc3c(c2)OCO3)c1-c1ccc2c(c1)OCO2 | – | – | – | – | – | – | – | – | – | – | – | – | – | > 100 µM | > 100 µM |
| COc1cc(-c2nc3ccc(C)cc3[nH]2)ccc1OCC(=O)N=Nc1c(O)[nH]c2ccccc12 | 4.39 µM | – | 3 µM | > 100 µM | – | – | 2.05 µM | – | > 100 µM | – | – | 1.63 µM | – | – | – |
| O=C(Nc1ccccc1C(F)(F)F)c1cccc(NC2=C(Cl)C(=O)N(Cc3ccccc3)C2=O)c1 | 44 µM | 27.1 µM | > 33 µM | 40.7 µM | > 53 µM | > 100 µM | 8.19 µM | 2.68 µM | 9.14 µM | 8.78 µM | 62.7 µM | 4.2 µM | – | – | – |
| CCOc1ccc(/C=C/C(=O)c2ccccc2)cc1 | 14.9 µM | 21 µM | 30.1 µM | 56.3 µM | 61.4 µM | 48.7 µM | 3.95 µM | 4.12 µM | 18.3 µM | 23.9 µM | 14.2 µM | 12 µM | – | – | – |
| Cc1c(CCCl)c(=O)n2c([nH]c3ccccc32)c1C#N | 5.63 µM | > 10 µM | 4.05 µM | 2.7 µM | 2.82 µM | 2.97 µM | – | – | – | – | – | – | – | – | – |
| CC1(C)C=CC[C@]2(C)[C@H]3CC[C@@H]4[C@H]5[C@H](C(=O)/C=C/c6cccnc6)CC[C@]5(CO)CC[C@@]4(C)[C@]3(C)CC[C@@H]12 | 2.69 µM | – | 2.64 µM | – | 1.91 µM | – | 1.36 µM | – | – | 0.505 µM | – | 1.32 µM | – | – | – |
| COc1cc(OC2OC(C)C(O)C(O)C2O)cc2oc(-c3ccc(O)cc3)c(CC=C(C)C)c(=O)c12 (configuration not stated) | > 100 µM | 48.2 µM | 59.9 µM | 93.3 µM | 28.4 µM | 30.8 µM | 34.3 µM | 13.9 µM | 24.3 µM | 8.32 µM | 8.74 µM | 20.5 µM | – | – | – |
| C=CCn1c(C)nc2cc(Nc3nc(Nc4ccc5nc(C)n(CC=C)c5c4)c4ccccc4n3)ccc21 | 1.34 µM | 0.554 µM | – | 5.27 µM | – | 0.909 µM | 0.389 µM | 0.224 µM | 2.03 µM | – | 0.28 µM | – | – | – | – |
| c1ccc2c(c1)[I+]c1ccccc1-2 | > 50 µM | > 50 µM | > 50 µM | > 50 µM | > 50 µM | > 50 µM | 35.6 µM | > 50 µM | > 50 µM | > 50 µM | > 50 µM | > 50 µM | – | – | – |
| CC(=O)NC1=N/C(=C/c2cc([N+](=O)[O-])ccc2O)CN1C | > 100 µM | > 100 µM | > 100 µM | > 100 µM | > 100 µM | > 100 µM | – | – | – | – | – | – | – | – | – |
